In publication PMC11050014, “Development of Novel Peptidyl Nitriles Targeting Rhodesain and Falcipain-2 for the Treatment of Sleeping Sickness and Malaria” (International Journal of Molecular Sciences, 2024):
Where two headings read alike, the source gives them in different places.

Columns and labels:
[1] = molecular target: T1, recombinant FP-2 (falcipain-2) (Plasmodium falciparum, UniProt Q8I6U4); experiment: FP-2 inhibition assay, fluorogenic substrate Cbz-Leu-Arg-AMC; assay type: biochemical; settings: 30 nM FP-2, Cbz-Leu-Arg-AMC 25 µM, pH 5.5
T1 construct: recombinant FP-2, which was expressed and purified as previously reported; made in house
T1 sequence (Q8I6U4 244-484): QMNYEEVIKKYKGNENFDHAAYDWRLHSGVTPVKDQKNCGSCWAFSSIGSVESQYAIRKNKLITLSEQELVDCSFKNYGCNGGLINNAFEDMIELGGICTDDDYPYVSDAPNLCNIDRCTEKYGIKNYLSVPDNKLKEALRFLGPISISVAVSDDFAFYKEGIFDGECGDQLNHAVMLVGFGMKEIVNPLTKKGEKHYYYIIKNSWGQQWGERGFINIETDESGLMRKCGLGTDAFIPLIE
Experimental: Compounds were tested for inhibition of recombinant FP-2, which was expressed and purified as previously reported. Stock solutions of the compounds, substrate, and the positive control E64 (Sigma Aldrich, St. Louis, MO, USA) were prepared at 10 mM in 100% DMSO. The compounds were incubated in 96-well white flat-bottom plates with 30 nM recombinant FP-2 for 10 min at room temperature in an assay buffer of 100 mM sodium acetate, pH 5.5, with 5 mM DTT. After incubation, the fluorogenic substrate Cbz-Leu-Arg-AMC (R&D Systems, Minneapolis, MN, USA) was added at a concentration of 25 µM in a final assay volume of 200 µL. Fluorescence was monitored with a Varioskan Flash (ThermoScientific, Waltham, MA, USA) with excitation 355 nm and emission 460 nm. The IC50 values were calculated using GraphPad Prism v. 6 (GraphPad Software Inc., San Diego, CA, USA)) based on a sigmoidal dose response curves.

[2] = system: Bloodstream T. brucei parasites (T. b. brucei); experiment: Antitrypanosomal activity, ATPlite cell viability assay; assay type: cell-based; settings: Trypanosoma brucei
Experimental: The final compound concentrations in the microplates were 33.3 µM to 65 nM.
Bloodstream T. brucei parasites were incubated in the presence of various concentrations of the tested compounds and after 24 h or 48 h cell viability was determined using the ATPlite (PerkinElmer, Waltham, MA, USA) assay. Chlorhexidine served as positive control. […] Cell viability data was normalized to the untreated controls and analyzed using GraphPad Prism. Whenever possible, data were fitted by log(inhibitor) vs response nonlinear fit (solid lines) and IC50 values were calculated.

recombinant rhodesain = molecular target: T2, recombinant rhodesain (Trypanosoma brucei rhodesiense, UniProt Q95PM0); experiment: Enzyme assay against recombinant rhodesain, fluorogenic substrate Cbz-Phe-Arg-AMC; assay type: biochemical; settings: for inhibition at 100 µM: read-out: Rhodesain Percentage of Inhibition at 100 μM
T2 construct: Rhodesain was recombinantly expressed as previously described; made in house
T2 sequence (Q95PM0 entry or part of it): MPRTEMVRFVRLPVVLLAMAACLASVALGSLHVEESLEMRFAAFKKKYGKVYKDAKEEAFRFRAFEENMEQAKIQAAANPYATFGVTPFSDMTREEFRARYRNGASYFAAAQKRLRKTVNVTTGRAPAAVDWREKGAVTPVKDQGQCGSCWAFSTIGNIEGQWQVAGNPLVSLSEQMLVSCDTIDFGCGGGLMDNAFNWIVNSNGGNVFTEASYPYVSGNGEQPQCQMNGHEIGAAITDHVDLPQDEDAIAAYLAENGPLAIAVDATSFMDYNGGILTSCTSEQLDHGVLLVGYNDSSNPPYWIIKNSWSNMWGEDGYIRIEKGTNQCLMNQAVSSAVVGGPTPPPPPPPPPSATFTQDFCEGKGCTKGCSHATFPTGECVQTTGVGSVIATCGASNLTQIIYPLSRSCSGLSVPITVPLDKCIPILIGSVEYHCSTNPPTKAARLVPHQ
Experimental: All compounds 1-8a-b were tested against recombinant rhodesain [34] by using Cbz-Phe-Arg-AMC as a fluorogenic substrate (Table 1). First, a preliminary screening at a fixed inhibitor concentration of 100 μM was performed.
An equivalent volume of DMSO was used as the negative control, and E-64, an irreversible inhibitor of clan CA family C1 cysteine proteases, was used as the positive control. For compounds that inhibited the enzyme activity at least 50% at […], continuous assays were performed at seven different concentrations to determine dissociation constants.
Preliminary screening with rhodesain was performed with 100 µM inhibitor concentrations using an equivalent amount of DMSO as negative control. Rhodesain was recombinantly expressed as previously described. Product release from substrate hydrolysis (Cbz-Phe-Arg-AMC, 10 µM) was determined continuously over a period of 10 min. […] The assay buffer contained 50 mM sodium acetate, pH = 5.5, 5 mM EDTA, 200 mM NaCl, and 0.005% Brij. The enzyme buffer contained 5 mM DTT rather than Brij. Product formation was monitored continuously for 10 min at room temperature. Inhibitor solutions were prepared from stocks in DMSO. Each independent assay was performed twice in duplicate in 96-well plates in a total volume of 200 µL. Fluorescence of the product AMC of the substrate hydrolyses was measured using an Infinite 200 PRO microplate reader (Tecan, Männedorf, Switzerland) at room temperature with a 380 nm excitation filter and a 460 nm emission filter.

[3] = inhibitor 100 μM, n.i. = no inhibition
[4] = 24 h incubation, ATPlite cell viability, read-out: Antitrypanosomal IC50 (24 h)

Row | Structure (SMILES) | melting point [°C] | IC50 [1] [µM] | inhibition at 100 µM (recombinant rhodesain) [%] | also measured
1 | N#C[C@H](CCc1ccccc1)NC(=O)Cn1ccc2ccccc21 [1a, N-((S)-1-Cyano-3-phenylpropyl)2-(1H-indol-1-yl)acetamide] | 120 to 121 | > 50 |  | IC50 ([2]; 24 h incubation, ATPlite cell viability, fitted beyond tested range (max 33.3 µM), read-out: Antitrypanosomal IC50 (24 h)): 1500 ± 2000 µM; IC50 ([2]; 48 h incubation, ATPlite cell viability, fitted beyond tested range (max 33.3 µM), read-out: Antitrypanosomal IC50 (48 h)): 280 ± 290 µM
2 | N#C[C@H](CCc1ccccc1)NC(=O)CCn1ccc2ccccc21 [1b, N-((S)-1-Cyano-3-phenylpropyl)-3-(1H-indol-1-yl)propanamide] | 155 to 156 | > 50 |  | Rhodesain Percentage of Inhibition at 100 μM (recombinant rhodesain; [3]): n.i.
3 | Cc1cc2ccccc2n1CC(=O)N[C@H](C#N)CCc1ccccc1 [2a, N-((S)-1-Cyano-3-phenylpropyl)-2-(2-methyl-1H-indol-1-yl)acetamide] | 131 to 133 | > 50 |  | 
4 | Cc1cc2ccccc2n1CCC(=O)N[C@H](C#N)CCc1ccccc1 [2b, N-((S)-1-Cyano-3-phenylpropyl)-3-(2-methyl-1H-indol-1-yl)propanamide] | 144 to 145 | 40.4 |  | IC50 [2, 4]: 12 ± 0.7 µM; IC50 ([2]; 48 h incubation, ATPlite cell viability, read-out: Antitrypanosomal IC50 (48 h)): 12 ± 3 µM
5 | Cc1cn(CC(=O)N[C@H](C#N)CCc2ccccc2)c2ccccc12 [3a, N-((S)-1-Cyano-3-phenylpropyl)-2-(3-methyl-1H-indol-1-yl)acetamide] | 114 to 115 | > 50 |  | 
6 | Cc1cn(CCC(=O)N[C@H](C#N)CCc2ccccc2)c2ccccc12 [3b, N-((S)-1-Cyano-3-phenylpropyl)-3-(3-methyl-1H-indol-1-yl)propanamide] | 130 to 132 |  | 7.8 | 
7 | N#C[C@H](CCc1ccccc1)NC(=O)Cn1ccc2cc(F)ccc21 [4a, N-((S)-1-Cyano-3-phenylpropyl)-2-(5-fluoro-1H-indol-1-yl)acetamide] | 150 to 152 |  | 18.7 | 
8 | N#C[C@H](CCc1ccccc1)NC(=O)CCn1ccc2cc(F)ccc21 [4b, N-((S)-1-Cyano-3-phenylpropyl)-3-(5-fluoro-1H-indol-1-yl)propanamide] | 142 to 143 |  | 1.9 | 
9 | N#CC1(NC(=O)Cn2ccc3ccccc32)CC1 [5a, N-(1-Cyanocyclopropyl)-2-(1H-indol-1-yl)acetamide] |  | > 50 |  | inhibition at 100 µM (recombinant rhodesain; [3]): 6.2%
10 | N#CC1(NC(=O)CCn2ccc3ccccc32)CC1 [5b, N-(1-Cyanocyclopropyl)-3-(1H-indol-1-yl)propanamide] | 139 to 141 | > 50 |  | inhibition at 100 µM (recombinant rhodesain; [3]): 4.4%
11 | Cc1cc2ccccc2n1CC(=O)NC1(C#N)CC1 [6a, N-(1-Cyanocyclopropyl)-2-(2-methyl-1H-indol-1-yl)acetamide] |  | > 50 |  | Rhodesain Percentage of Inhibition at 100 μM (recombinant rhodesain; [3]): n.i.
12 | Cc1cn(CC(=O)NC2(C#N)CC2)c2ccccc12 [7a, N-(1-Cyanocyclopropyl)-2-(3-methyl-1H-indol-1-yl)acetamide] |  | > 50 |  | Rhodesain Percentage of Inhibition at 100 μM (recombinant rhodesain; [3]): n.i.
13 | Cc1cn(CCC(=O)NC2(C#N)CC2)c2ccccc12 [7b, N-(1-Cyanocyclopropyl)-3-(3-methyl-1H-indole-1-yl)propanamide] |  |  | 9.5 | 
14 | N#CC1(NC(=O)Cn2ccc3cc(F)ccc32)CC1 [8a, N-(1-cyanocyclopropyl)-2-(5-fluoro-1H-indol-1-yl)acetamide] |  |  | 4.5 | 
15 | N#CC1(NC(=O)CCn2ccc3cc(F)ccc32)CC1 [8b, N-(1-Cyanocyclopropyl)-3-(5-fluoro-1H-indol-1-yl)propanamide] |  |  | 9.6 | 
16 | [H]/N=C(\N/C(=N/[H])NCCCCCCNC(=N)NC(=N)Nc1ccc(Cl)cc1)Nc1ccc(Cl)cc1 [Chlorhexidine, chlorhexidine, reference compound] |  |  |  | IC50 ([2]; 48 h, read-out: Antitrypanosomal IC50 (48 h)): 0.7 ± 0.2 µM; IC50 [2, 4]: 0.98 µM
17 | CC(C)C[C@H](NC(=O)[C@H]1O[C@@H]1C(=O)O)C(=O)NCCCCN=C(N)N [E-64, reference compound] |  | 0.051 |  | Ki (recombinant rhodesain; Cbz-Phe-Arg-AMC 10 µM, pH 5.5, progress curves 10 min, Ki = IC50/(1 + [S]/Km)): 0.033 ± 0.007 µM
